Results from paper PMC6661759 (BMC Chemistry, 2019).
In brackets after ≈: the same amount, converted by molar mass. Like-named read-outs stand apart in the source and are kept apart here.

What was measured:
[1] = tested on: H. pylori bacterium (DSM 4867); assay: Anti-H. pylori activity, well diffusion technique; type: cell-based, Helicobacter pylori; conditions: H. pylori DSM 4867, 2500 µg per well, 24–48 h
Method: (§1) Derivatives C4a, C4b and C4d which were found best in urease inhibition and antioxidant activity as well as in terms of docking score were tested further against antibacterial efficiency against Helicobacter pylori DSM 4867 using AHA as a standard and DMSO as control. […] In-vitro results concluded that compound C4a bearing nitro and chloro group at 2nd and 4th position indicated excellent antibacterial action against H. Pylori probably by interacting with the target protein efficiently and inhibited the growth of pathogenic bacteria.
(§2) Since H. Pylori is not acidophilic in nature therefore it requires urease, which produced ammonia by hydrolyzing urea present in stomach, for its survival in acidic gastric medium. Because of virulence nature of urease researchers decided to target its inhibition for anti-H. Pylori drugs. Novel synthesized derivatives were investigated against H. pylori bacterium (DSM 4867, AHA as standard) for their antibacterial activity by using Well diffusion technique. The stock solution of compounds in DMSO (1000 μg/mL) were prepared. Cell suspension was prepared from culture grown on BHI broth. The cell suspensions of all the cultures were adjusted to 1–2 × 10^5 cells/mL. Helicobacter pylori (100 µL) was inoculated by spread plate technique on agar plates (90 mm). […] MIC was determined against Helicobacter pylori by micro broth dilution technique as per NCCLS method.

[2] = tested on: Helicobacter pylori DSM 4867; assay: MIC against Helicobacter pylori by micro broth dilution technique; type: cell-based; conditions: H. pylori DSM 4867, micro broth dilution
Method: as §1, §2

Jack Bean Urease [3] = molecular target: T1, Jack Bean Urease (Canavalia ensiformis, UniProt P07374); assay: biochemical
T1 construct: purchased Sigma Aldrich
T1 sequence (P07374 whole entry, looked up): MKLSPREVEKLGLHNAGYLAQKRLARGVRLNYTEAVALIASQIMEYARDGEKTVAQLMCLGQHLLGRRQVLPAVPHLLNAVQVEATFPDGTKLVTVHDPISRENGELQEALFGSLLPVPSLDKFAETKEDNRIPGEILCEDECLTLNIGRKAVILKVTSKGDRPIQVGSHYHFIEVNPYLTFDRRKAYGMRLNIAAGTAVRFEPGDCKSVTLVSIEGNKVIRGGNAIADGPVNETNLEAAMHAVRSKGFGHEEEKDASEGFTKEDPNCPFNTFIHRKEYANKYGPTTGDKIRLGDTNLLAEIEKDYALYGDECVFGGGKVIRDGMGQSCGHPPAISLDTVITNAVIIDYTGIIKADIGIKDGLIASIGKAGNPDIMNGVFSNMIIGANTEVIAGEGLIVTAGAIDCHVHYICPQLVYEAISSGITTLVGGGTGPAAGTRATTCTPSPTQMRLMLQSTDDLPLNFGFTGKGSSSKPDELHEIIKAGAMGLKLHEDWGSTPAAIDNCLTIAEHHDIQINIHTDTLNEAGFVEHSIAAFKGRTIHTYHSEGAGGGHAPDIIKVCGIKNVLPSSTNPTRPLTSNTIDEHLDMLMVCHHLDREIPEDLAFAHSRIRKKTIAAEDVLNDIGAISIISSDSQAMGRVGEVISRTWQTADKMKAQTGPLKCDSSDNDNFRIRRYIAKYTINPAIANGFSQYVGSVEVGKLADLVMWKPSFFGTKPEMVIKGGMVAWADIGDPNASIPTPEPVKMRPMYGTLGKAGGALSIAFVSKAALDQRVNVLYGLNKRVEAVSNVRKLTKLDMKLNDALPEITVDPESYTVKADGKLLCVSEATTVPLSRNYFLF
Method: (§3) As structure of urease from different sources has common structural features therefore urease inhibition studies were carried out on jack bean urease. Inhibition studies were carried out by indophenol technique described by Weatherburn in which measurement of concentration of ammonia released during the reaction between reagents and compounds were done.
Urease enzyme inhibition investigation studies for all synthesized compounds were done by the method developed by Weatherburn (1967) named Indophenol against Jack Bean Urease. Briefly, incubation of solution of Jack bean protein 25 μL was done at temperature of 30 °C for a period of 15 min with 55 μL of buffers solution having 100 mM urea and 5 μL of test solution in 96-well plates. 45 μL phenol solution composing phenol 1% w/v and solution of sodium nitroprusside 0.005% w/v and alkali reagent 70 μL composed of sodium hydroxide 0.5% w/v and active sodium hypochloride solution 0.1% were mixed to every well. The measurement of increase in absorption at 625 nm was done after 50 min by help of a microplate reader (Molecular Device, USA). Readings were recorded in triplicate set in a final volume of 200 μL using thiourea as standard. Each assay was performed at pH 8.2 (0.01 M K2HPO4.3H2O, 0.01 M […] and 1 mM EDTA). Calculation of Inhibition in percentage of synthesized derivatives was done by the formula given as: I\%=AControl-ASample/AControl×100 where, Acontrol is control absorbance; Asample is test absorbance.

[4] = DPPH assay for antioxidant activity; conditions: DPPH free radical scavenging, mean SEM
Method: as §3
Antioxidant nature of the synthesized derivatives was measured by the help of DPPH method. According to this method synthesized compounds were allowed to react for 0.5 h at 37 °C with stable free radical, 1, 1-diphenyl-2-picrylhydrazyl radical (DPPH). The DPPH was taken in a concentration of 300 µM. Decrease in value of absorption at 515 nm was measured after the period of incubation using a microplate reader using ascorbic acid as a standard. Molecule capable of donating proton to DPPH and cause its reduction acts as an antioxidant. Following reduction deep violet coloured DPPH solution changes to yellow depending upon the nature of antioxidant compound, which brings a measurable decrease in value of absorption at 517 nm. The proton or electron donating capacity of the derivative was estimated from the fading of deep purple colored methanolic solution of 1, 1-diphenylpicrylhydrazyl (DPPH). Incubation of mixture was done at room temperature for 30 min and measurements were done at 517 nm against blank. Calculation of percentage inhibition was done by following formula: I\%=AControl-ASample/AControl×100 where, Acontrol is control absorbance; Asample is test absorbance.

Jack Bean Urease [5] = molecular target: T1, Jack Bean Urease; assay: Enzyme kinetics, Lineweaver-Burk plot; type: biochemical; conditions: varying urea, phosphate buffer, 1 mM EDTA, pH 8.2
Method: Study of inhibitory effect of chlorogenic derivatives on jack bean urease was performed to check the inhibitory potential, kinetics studies and mechanism of inhibition in phosphate buffer and 1 mM EDTA at pH 8.2. […] Competitive inhibition infers that compound C4a will probably compete for binding at the site of substrate in enzyme active site pocket.
(substrate concentration) against 1/[V] velocity. To examine the mode of inhibition compound C4a was solubilized in DMSO and further dilutions were prepared accordingly. Plot was prepared by using varying concentration of substrate (urea) in with varying concentration of inhibitor C4a. Inhibitory constant values (Ki) were determined as the interaction on the X-axis of the plots of the slope against different concentration of derivatives C4a. […] All experiments were performed in triplicate and kinetic study for interaction of enzyme with inhibitor was computed with Graphpad prism 7.0 software.

| SMILES | IC50 (Jack Bean Urease [3]) [µM] | IC50 [4] [µM] | further results |
| --- | --- | --- | --- |
| CC(=O)NO [AHA, acetohydroxamic acid, reference compound] | – | – | zone of inhibition [1]: 9.00 ± 0.50 mm; MIC [2]: 1000 µg/mL (≈ 13300 µM) |
| COc1cccc(NC(=O)[C@]2(O)CC(O)C(O)[C@H](OC(=O)/C=C/c3ccc(O)c(O)c3)C2)c1 (stereo partly drawn) [C4e, (1R, 5S)-2,3,5-trihydroxy-5-((3-methoxyphenyl)carbamoyl) cyclohexyl (2E)-3-(3,4-dihydroxyphenyl)prop-2-enoate] | 20.6 ± 0.001 | 6.85 ± 0.02 | – |
| O=C(/C=C/c1ccc(O)c(O)c1)O[C@@H]1C[C@](O)(C(=O)Nc2ccc([N+](=O)[O-])cc2Cl)CC(O)C1O (stereo partly drawn) [C4a, (1R, 5S)-5-((2-chloro-4-nitrophenyl)carbamoyl)-2,3,5-trihydroxycyclohexyl (2E)-3-(3,4-dihydroxyphenyl)prop-2-enoate] | 11.01 ± 0.013 | 5.1 ± 0.018 | zone of inhibition [1]: 10.00 ± 0.00 mm; MIC ([2]; Helicobacter pylori, DSM4867, read-out: MIC): 500 µg/mL (≈ 983 µM); mode of inhibition (Jack Bean Urease [5]): competitive type of Inhibition |
| O=C(/C=C/c1ccc(O)c(O)c1)O[C@@H]1C[C@](O)(C(=O)Nc2ccc(Br)cc2)CC(O)C1O (stereo partly drawn) [C4c, (1R, 5S)-5-((4-bromophenyl)carbamoyl)-2,3,5-trihydroxycyclohexyl (2E)-3-(3,4-dihydroxyphenyl)prop-2-enoate] | 22.02 ± 0.027 | 8.48 ± 0.026 | – |
| O=C(/C=C/c1ccc(O)c(O)c1)O[C@@H]1C[C@](O)(C(=O)O)C[C@@H](O)[C@H]1O [CHLG, chlorogenic acid, reference compound] | 22.68 ± 0.006 | – | – |
| O=C(/C=C/c1ccc(O)c(O)c1)O[C@@H]1C[C@](O)(C(=O)Nc2ccc(Cl)cc2[N+](=O)[O-])CC(O)C1O (stereo partly drawn) [C4b, (1R, 5S)-5-((4-chloro-2-nitrophenyl)carbamoyl)-2,3,5-trihydroxycyclohexyl (2E)-3-(3,4-dihydroxyphenyl)prop-2-enoate] | 15.86 ± 0.004 | 6.01 ± 0.005 | – |
| O=C(/C=C/c1ccc(O)c(O)c1)O[C@@H]1C[C@](O)(C(=O)Nc2ccccc2F)CC(O)C1O (stereo partly drawn) [C4h, (1R, 5S)-5-((2-fluorophenyl)carbamoyl)-2,3,5-trihydroxycyclohexyl (2E)-3-(3,4-dihydroxyphenyl)prop-2-enoate] | 21.24 ± 0.016 | 7.23 ± 0.008 | – |
| COc1ccc(NC(=O)[C@]2(O)CC(O)C(O)[C@H](OC(=O)/C=C/c3ccc(O)c(O)c3)C2)cc1 (stereo partly drawn) [C4f, (1R, 5S)-2,3,5-trihydroxy-5-((4-methoxyphenyl)carbamoyl)cyclohexyl (2E)-3-(3,4-dihydroxyphenyl)prop-2-enoate] | 21.83 ± 0.009 | 7.89 ± 0.006 | – |
| NC(N)=S [Thiourea, thiourea, reference compound] | – | – | IC50 (Jack Bean Urease [3]; jack bean urease, indophenol method, pH 8.2, mean SEM, read-out: IC50 (µM) urease inhibition): 22.8 ± 0.011 µM |
| Cc1ccccc1NC(=O)[C@]1(O)CC(O)C(O)[C@H](OC(=O)/C=C/c2ccc(O)c(O)c2)C1 (stereo partly drawn) [C4g, (1R, 5S)-2,3,5-trihydroxy-5-((2-methylphenyl)carbamoyl)cyclohexyl (2E)-3-(3,4-dihydroxyphenyl)prop-2-enoate] | 21.5 ± 0.032 | 7.75 ± 0.011 | – |
| O=C(/C=C/c1ccc(O)c(O)c1)O[C@@H]1C[C@](O)(C(=O)Nc2cccc([N+](=O)[O-])c2)CC(O)C1O (stereo partly drawn) [C4d, (1R, 5S)-2,3,5-trihydroxy-5-((3-nitrophenyl)carbamoyl)cyclohexyl (2E)-3-(3,4-dihydroxyphenyl)prop-2-enoate] | 13.8 ± 0.041 | 5.34 ± 0.007 | – |
| O=C1O[C@H]([C@@H](O)CO)C(O)=C1O [Ascorbic acid, ascorbic acid, reference compound] | – | 8.59 ± 0.004 | – |
